What all share (assay type): physicochemical
Data set [1] can be described thus: pKa2 value of the compound. As to conditions: read-out: pKa2.
Data set [2] can be described thus: pKa1 value of the compound. The settings on record: read-out: pKa1.
Data set [3] is described as follows: pKa value of the compound.

`O=P(O)(O)OC[N+]1(C/C=C/c2ccccc2)CCN(C(c2ccccc2)c2ccccc2)CC1`: the pKa was found to be 7.47 in data set [1] and 1.95 in data set [2].

Consider `C[N+]1(COP(=O)(O)O)CCN(C2=Nc3ccccc3Oc3ccc(Cl)cc32)CC1`, for which, in data set [1], the pKa is 7.5.

For the molecule `CCCCc1oc2ccccc2c1C(=O)c1cc(I)c(OCC[N+](CC)(CC)COP(=O)(O)O)c(I)c1`, the pKa in data set [3] came out at 6.56.

These data come from ChEMBL document CHEMBL1132340, “Novel prodrug approach for tertiary amines: synthesis and preliminary evaluation of N-phosphonooxymethyl prodrugs” (J Med Chem, 1999).
